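Test compounds were applied to cells in 96-well plates for 48 hours at 5 doses. GI50: concentration for 50% inhibition of growth.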 Active and inactive are the calls of the source. Cut-off read from the data, not from the text of the source: active = GI50 up to about 1.1 µM and inactive = higher.
How the values were obtained:
Assay in all cases: NCI anticancer screen, dose series, 48 h
A549 = tested on: A549
CCRF-CEM = tested on: CCRF-CEM
COLO 205 = tested on: COLO 205
DMS-273 = tested on: DMS-273
DU-145 = tested on: DU-145
HCT-116 = tested on: HCT-116
HOP-62 = tested on: HOP-62
IGROV-1 = tested on: IGROV-1
MCF7 = tested on: MCF7
MDA-N = tested on: MDA-N
NCI-H23 = tested on: NCI-H23
OVCAR-5 = tested on: OVCAR-5
PC-3 = tested on: PC-3
RPMI-8226 = tested on: RPMI-8226
SF-295 = tested on: SF-295
SN12C = tested on: SN12C
SNB-19 = tested on: SNB-19
SW-620 = tested on: SW-620
T47D = tested on: T47D
UACC-257 = tested on: UACC-257

Compound	GI50 (A549)	GI50 (CCRF-CEM)	GI50 (COLO 205)	GI50 (DMS-273)	GI50 (DU-145)	GI50 (HCT-116)	GI50 (HOP-62)	GI50 (IGROV-1)	GI50 (MCF7)	GI50 (MDA-N)	GI50 (NCI-H23)	GI50 (OVCAR-5)	GI50 (PC-3)	GI50 (RPMI-8226)	GI50 (SF-295)	GI50 (SN12C)	GI50 (SNB-19)	GI50 (SW-620)	GI50 (T47D)	GI50 (UACC-257)
O=c1c2ccccc2sc2nc(CCl)nn12	31 µM (inactive)	> 100 µM (inactive)	13.1 µM (inactive)	8.18 µM (inactive)	7.78 µM (inactive)	4.75 µM (inactive)	> 100 µM (inactive)	17.2 µM (inactive)	3.65 µM (inactive)	4.94 µM (inactive)	7.59 µM (inactive)	24 µM (inactive)	3.42 µM (inactive)	> 97.5 µM (inactive)	43.1 µM (inactive)	9.08 µM (inactive)	77.4 µM (inactive)	12.7 µM (inactive)	4.76 µM (inactive)	14 µM (inactive)
CN(C)/C(=N\C#N)NCc1ccccc1	> 100 µM (inactive)		> 100 µM (inactive)	> 100 µM (inactive)		> 100 µM (inactive)	> 100 µM (inactive)	> 100 µM (inactive)			> 100 µM (inactive)				> 100 µM (inactive)	> 100 µM (inactive)	> 100 µM (inactive)	> 100 µM (inactive)		> 100 µM (inactive)
O=C(O)c1ccccc1NC(=O)C1CCCCC1	> 100 µM (inactive)	> 100 µM (inactive)	> 100 µM (inactive)	> 100 µM (inactive)		> 100 µM (inactive)	> 100 µM (inactive)	> 100 µM (inactive)				> 100 µM (inactive)		> 100 µM (inactive)	> 100 µM (inactive)	> 100 µM (inactive)	> 100 µM (inactive)	> 100 µM (inactive)		> 100 µM (inactive)
COc1cccc2c1C(=O)c1c(O)c3c(c(O)c1C2=O)C[C@@](O)(C(C)=O)C[C@@H]3OC1CC(N(C)C)C(O)C(C)O1 (some centres not stated)	0.00617 µM (active)	0.00412 µM (active)	0.00428 µM (active)	0.00964 µM (active)	0.000785 µM (active)	0.00169 µM (active)	0.00344 µM (active)	0.00447 µM (active)	0.01 µM (active)	0.000226 µM (active)	0.00508 µM (active)	0.00577 µM (active)	0.000206 µM (active)	0.0113 µM (active)	0.00425 µM (active)	0.00357 µM (active)	0.00411 µM (active)	0.00348 µM (active)	0.000196 µM (active)	0.00555 µM (active)
COC(=O)/C(=N\NC(=O)C[N+](C)(C)C)C(C(=O)OC)C(=O)C(=O)Nc1ccccc1C(N)=O (configuration not stated)	> 100 µM (inactive)	> 100 µM (inactive)	> 100 µM (inactive)	> 100 µM (inactive)		> 100 µM (inactive)	> 100 µM (inactive)	> 100 µM (inactive)			> 100 µM (inactive)	> 100 µM (inactive)		> 100 µM (inactive)	> 100 µM (inactive)	> 100 µM (inactive)	> 100 µM (inactive)	> 100 µM (inactive)		> 100 µM (inactive)
Cn1ccnc1CCc1ccc(Cl)c(Cl)c1	> 100 µM (inactive)	> 100 µM (inactive)	> 100 µM (inactive)	> 100 µM (inactive)		> 100 µM (inactive)	> 100 µM (inactive)	> 100 µM (inactive)			> 100 µM (inactive)	> 100 µM (inactive)		> 100 µM (inactive)	> 100 µM (inactive)	> 100 µM (inactive)		> 100 µM (inactive)		> 100 µM (inactive)
C1=C2/CC[C@H](Sc3ccccc3)C2C2(CCCCC/1)OCCO2 (some centres not stated)		28.6 µM (inactive)	21.6 µM (inactive)	25.4 µM (inactive)		16.5 µM (inactive)	19.3 µM (inactive)	27.9 µM (inactive)			16.2 µM (inactive)			17.6 µM (inactive)	27.5 µM (inactive)	32.3 µM (inactive)	> 100 µM (inactive)	28.1 µM (inactive)		15.9 µM (inactive)
COc1ccc(NC(=O)CSc2nnc(-c3ccc(/N=C\c4ccc(Cl)cc4)cc3)o2)cc1	> 100 µM (inactive)	8.22 µM (inactive)	20 µM (inactive)	26.8 µM (inactive)	34.5 µM (inactive)	14.2 µM (inactive)	24.8 µM (inactive)	39.5 µM (inactive)	23.2 µM (inactive)	39.6 µM (inactive)	36 µM (inactive)	> 100 µM (inactive)	22 µM (inactive)	9.06 µM (inactive)	48.5 µM (inactive)	16.1 µM (inactive)	29.9 µM (inactive)	22.1 µM (inactive)	21.2 µM (inactive)	46.5 µM (inactive)
CCN(CC)CCSc1c2ccccc2nc2cc(NCC(=O)Nc3ccccc3-c3ccccc3NC(=O)CNc3ccc4c(SCCN(CC)CC)c5ccccc5nc4c3)ccc12	> 100 µM (inactive)	24.9 µM (inactive)	> 35.2 µM (inactive)	> 34.7 µM (inactive)		> 78.3 µM (inactive)	> 100 µM (inactive)	> 100 µM (inactive)			> 100 µM (inactive)	> 100 µM (inactive)		53.7 µM (inactive)	> 100 µM (inactive)	> 100 µM (inactive)	> 100 µM (inactive)	> 100 µM (inactive)		> 100 µM (inactive)
CN[C@@H](C)[C@H](NC)c1ccccc1	> 100 µM (inactive)	> 100 µM (inactive)	> 100 µM (inactive)	> 100 µM (inactive)		> 100 µM (inactive)		> 100 µM (inactive)			> 100 µM (inactive)			> 100 µM (inactive)	> 100 µM (inactive)	> 100 µM (inactive)	> 100 µM (inactive)	> 100 µM (inactive)		> 100 µM (inactive)
CCCCCCCCCCCC(=O)OC(COC(N)=O)COc1ccc(Cl)cc1 (configuration not stated)	19.1 µM (inactive)	18.2 µM (inactive)	17 µM (inactive)	20.9 µM (inactive)		15.9 µM (inactive)	25 µM (inactive)	27.5 µM (inactive)			20.7 µM (inactive)			22.1 µM (inactive)	20.3 µM (inactive)	26.7 µM (inactive)	33.3 µM (inactive)	24.3 µM (inactive)		19.1 µM (inactive)
CCCCn1/c(=N/C(=S)N(C)C)ss/c1=N\C(=S)N(C)C	> 100 µM (inactive)	> 100 µM (inactive)		> 100 µM (inactive)		> 100 µM (inactive)	> 100 µM (inactive)	> 100 µM (inactive)			> 100 µM (inactive)	> 100 µM (inactive)		> 100 µM (inactive)	> 100 µM (inactive)	> 100 µM (inactive)	> 100 µM (inactive)	> 100 µM (inactive)		> 100 µM (inactive)
O=C(CCC1C(=O)NC(=S)NC1=O)c1ccc2ccccc2c1	> 100 µM (inactive)	> 100 µM (inactive)	> 100 µM (inactive)	> 100 µM (inactive)		> 100 µM (inactive)	> 100 µM (inactive)	> 100 µM (inactive)			> 100 µM (inactive)	> 100 µM (inactive)			> 100 µM (inactive)	> 100 µM (inactive)	> 100 µM (inactive)	> 100 µM (inactive)		> 100 µM (inactive)
CC(=O)NC1C(=O)CC(c2ccccc2)N(C)C1c1ccccc1 (configuration not stated)	> 100 µM (inactive)	> 100 µM (inactive)	> 100 µM (inactive)	> 100 µM (inactive)		> 100 µM (inactive)	> 100 µM (inactive)	> 100 µM (inactive)			> 100 µM (inactive)	> 100 µM (inactive)			> 100 µM (inactive)	> 100 µM (inactive)	> 100 µM (inactive)	> 100 µM (inactive)		> 100 µM (inactive)
CCCCCCCCCCCC(=O)OCC1OC(n2cc(F)c(=O)[nH]c2=O)C(NC(=O)OCc2ccccc2)C(OC(=O)CCCCCCCCCCC)C1O (configuration not stated)	> 100 µM (inactive)	> 100 µM (inactive)	> 100 µM (inactive)	> 100 µM (inactive)		> 100 µM (inactive)	> 100 µM (inactive)	> 100 µM (inactive)			> 100 µM (inactive)	> 100 µM (inactive)		> 100 µM (inactive)	> 100 µM (inactive)	> 100 µM (inactive)	> 100 µM (inactive)	> 100 µM (inactive)		> 100 µM (inactive)
CC12CCC3(C1)[C@H](CC2=O)C[C@@H](OC(=O)c1ccccc1)C1C(C)(CO)CCC[C@@]13C (some centres not stated)	3.46 µM (inactive)	2.29 µM (inactive)	4.35 µM (inactive)	0.625 µM (active)		2.22 µM (inactive)	5.41 µM (inactive)	6.49 µM (inactive)			0.681 µM (active)	2 µM (inactive)		0.746 µM (active)	0.322 µM (active)	4.35 µM (inactive)	5.86 µM (inactive)	2.37 µM (inactive)		0.149 µM (active)
COc1ccc(NC(=O)C(=O)Cc2nc3ccc([N+](=O)[O-])cc3nc2O)c(OC)c1	> 100 µM (inactive)	> 100 µM (inactive)	> 100 µM (inactive)	> 100 µM (inactive)		> 100 µM (inactive)		> 100 µM (inactive)			> 100 µM (inactive)	> 100 µM (inactive)			> 100 µM (inactive)		> 100 µM (inactive)	> 100 µM (inactive)		> 100 µM (inactive)
CN(C)c1ccc(/C=C2\CNC/C(=C\c3ccc(N(C)C)cc3)C2=O)cc1	27.4 µM (inactive)	25.8 µM (inactive)	45.1 µM (inactive)	12.7 µM (inactive)		16 µM (inactive)	> 100 µM (inactive)	22 µM (inactive)			> 100 µM (inactive)	> 100 µM (inactive)		54.6 µM (inactive)	76.4 µM (inactive)	26.5 µM (inactive)				22.5 µM (inactive)

Reference: ChEMBL document CHEMBL1201862, “PubChem BioAssay data set” (2004)
